# Test results published in US20240285586A1, “METHODS FOR TREATING BACTERIAL CELL POPULATIONS” (THE HONG KONG POLYTECHNIC UNIVERSITY, priority 2021, published 2024).
# How the values were obtained:
# [1] = tested on: carbapenem resistant E. coli J53 strain which expressed the carbapenemase NDM-1; experiment: Starvation-induced tolerance assay, carbapenem-resistant E. coli; type: cell-based, Escherichia coli; settings: econazole + sub-lethal dose of meropenem (40 μg/ml), nutrient starvation
# Protocol: Upon reaching the exponential phase, bacteria were washed and re-suspended in saline (0.9% NaCl), and then incubated at 37° C. under constant shaking (250 rpm/min) for 24 hrs. […]
# [2] = tested on: Gram negative strains; experiment: Minimal inhibitory concentration, Gram negative strains; type: cell-based; settings: all Gram negative test strains
# Excerpt: (§1) Determination of Minimal Inhibitory Concentrations (MICs).
# [3] = tested on: E. coli BW25113; experiment: Starvation-induced tolerance assay, wild type E. coli; type: cell-based, Escherichia coli
# Protocol: (§2) Tolerance assay. […] Standard serial dilution and plating on LB agar was performed before and after ampicillin treatment for 4 hrs, 2 days, 4 days and 6 days to determine the fraction of the test population that survived at different time points during the course of treatment.
# (§3) Standard serial dilution and plating on LB agar was performed on samples collected every 24 hrs to assess changes in the size of the sub-population that survived during the treatment process.
# (§4) Upon reaching the exponential phase, bacteria were washed and re-suspended in saline (0.9% NaCl), and then incubated at 37° C. under constant shaking (250 rpm/min) for 24 hrs. […] Standard serial dilution and plating on LB agar were performed before and after ampicillin treatment for 4 hrs, 1 day, 2 days and 4 days to determine the fraction of the test population that survived at different time points during the course of treatment.
# [4] = tested on: S. typhimurium PY1; experiment: Mouse peritonitis infection (tolerance sepsis) model; type: in vivo
# Protocol: NIH male mice of about six-weeks-old with body weight of ˜20 g were used, 6 mice per group. The animals were allowed to acclimate to the housing facility for 5 days. The mice were made neutropenic by administering 150 mg/kg cyclophosphamide 3 days and 1 day before infection. Different amounts of S. typhimurium strain PY01 (2.8×10^5 CFU, 7.6×10^5 CFU or 1.5×10^6 CFU) were inoculated into the animals via intraperitoneal injection. The mice were subjected to ceftazidime (20 mg/kg), econazole (20 mg/kg) or ceftazidime combining econazole treatment (i.p.) 24 h after inoculation, at 12 hrs intervals for 72 hrs randomly. The mortality rate of the test mice was recorded every 12 hrs. After 72 h of treatment, live mice were euthanized and subjected to peritoneal washes which involved injection of 2 mL of saline into the intraperitoneal space, followed by abdominal massage. The abdomen was then cut open and 200 μL of peritoneal fluid were collected and serially diluted in saline. A 100 μL portion of each dilution was spread on LB plates, followed by incubation overnight at 37° C. Colonies were counted to determine the bacterial load in the test samples, which were expressed as CFU/ml. Statistical analysis and ethic approval were the same as described above.
# [5] = tested on: P. aeruginosa; experiment: Starvation-induced tolerance assay, P. aeruginosa; type: cell-based, Pseudomonas aeruginosa
# Protocol: as §2, §3, §4
# [6] = tested on: S. aureus; experiment: Membrane potential assay DiSC3(5), S. aureus; type: cell-based, Staphylococcus aureus; settings: econazole 40 μM, cells starved 24 hrs
# Protocol: (§5) Assessment of effect of econazole on membrane potential. Fluorometric measurement of membrane potential of bacterial cells was performed using the voltage-sensitive dye DiSC3(5). The test organisms were first subjected to starvation for 24 hrs and then centrifuged and washed twice with PBS. The cell pellet was resuspended in PBS containing 100 mM of KCl to a final concentration of OD 0.2. The cells were incubated with 1 μM of DiSC3(5) for 5 min under shaking in dark. The cells were treated with econazole (40 μM); a no treatment control was included. The fluorometric measurements were carried out on black polystyrene microtiter plates using a Clariostar Microplate Reader (BMG LABTECH), with excitation wavelength at 610 nm and emission wavelength at 660 nm.
# [7] = tested on: A. baumannii; experiment: Starvation-induced tolerance assay, A. baumannii; type: cell-based, Acinetobacter baumannii
# Protocol: as §2, §3, §4
# [8] = tested on: E. coli BW25113; experiment: Mouse deep-seated thigh infection model; type: in vivo, Escherichia coli
# Protocol: NIH mice were purchased from the Guangdong Center for Experimental Animals, Guangzhou, China. Male mice at ˜6 weeks of age with a weight of ˜20 g were used in the experiments, 6 mice per group. The animals were allowed to acclimate to the housing facility for 5 days. The mice were made neutropenic by administering 150 mg/kg cyclophosphamide 3 days and 1 day before infection. An inoculum of 1×10^6 CFU of E. coli BW25113 was injected into the right thigh of the mouse. At 24 hrs post-infection, the mice in each group received ceftazidime (20 mg/kg), econazole (20 mg/kg) or ceftazidime combining econazole treatment (i.p.) every 12 hrs for 72 hrs randomly. The mice were then euthanized and the infected thighs were aseptically excised and homogenized in PBS; the number of E. coli present in the samples was enumerated by serial dilution, spreading on LB plates, and incubation at 37° C. overnight. The population size of bacteria that survived different treatments was recorded, compared and analyzed by one-way ANOVA and post hoc Tukey test. The data were presented by using the Graph Pad Prism software. All experimental protocols followed the standard operating procedures of the Biosafety level 2 animal facilities approved by the Animal Ethics Committee of The City University of Hong Kong.
# [9] = tested on: S. typhimurium; experiment: Starvation-induced tolerance assay, S. typhimurium; type: cell-based
# Protocol: as §2, §3, §4
# [10] = tested on: E. coli J53 (mcr-1); experiment: MIC of colistin in presence and absence of compound, broth dilution; type: cell-based, Escherichia coli; settings: antibiotic resistant E. coli (FIG. 20)
# [11] = tested on: K. pneumoniae; experiment: Starvation-induced tolerance assay, K. pneumoniae; type: cell-based, Klebsiella pneumoniae
# Protocol: as §2, §3, §4
# [12] = general statement; cited from earlier work
# [13] = tested on: E. coli tolerant cells; experiment: Scanning electron microscopy of tolerant cells; type: cell-based, Escherichia coli; settings: for cell morphology under SEM: 24 hours
# Protocol: Electron microscopy analysis. E. coli which had been subjected to starvation for 24 hours were treated with econazole alone, ampicillin alone and a combination of econazole and ampicillin for 24 hours, followed by examination under scanning electron microscopy (SEM). Cells treated with saline were included as negative control. Briefly, bacterial cells were fixed in 0.4% polyoxymethylene overnight and then in Osmium tetroxide (OsO4) for 2 hrs, followed by washing for three times with PBS. The cells were then dehydrated using pure ethanol, and infiltrated and embedded in Spurr resin for examination by SEM.
# [14] = tested on: E. coli; experiment: Membrane potential assay DiSC3(5), E. coli; type: cell-based, Escherichia coli; settings: econazole 40 μM, cells starved 24 hrs
# Protocol: Membrane potential assay. The transmembrane electrical potential was measured by using a membrane potential-sensitive probe, DiSC3(5). Bacterial population in either the exponential phase (OD600 of 0.2) or under 24 hrs starvation (resuspended in saline) were collected by centrifugation (6000×g, 2 mins), washed twice and re-suspended in PBS (pH 7.4), and then adjusted to OD600 of 0.2. KCl and DiSC3(5) were added until final concentration of 100 mM and 1 μM was respectively reached, followed by incubation at room temperature for 25 mins in the dark to allow the dye to penetrate through the outer membrane and produce a quenching effect. […] The fluorescence reading was monitored by using a Clariostar Microplate Reader (BMG LABTECH) at an excitation wavelength of 622±10 nm and an emission wavelength of 670±10 nm for 10 mins. Upon depolarization, the dye was rapidly released into the medium, resulting in dequenching and facilitating detection fluorometrically. […] The sample preparation method is same as that prior to testing with the Microplate Reader except for the last step. Briefly, cells were washed with PBS three times before confocal observation to remove extracellular DiSC3(5) dye. […] DiSC3(5) was excited by 638 nm laser and fluorescence was detected by HyD detector at emission wavelength 675±25 nm. The images were acquired and analyzed by the Leica Application Suite X (LAS X) software. […]
# [15] = tested on: P. aeruginosa; experiment: Membrane potential assay DiSC3(5), P. aeruginosa; type: cell-based, Pseudomonas aeruginosa; settings: econazole 40 μM, cells starved 24 hrs
# Protocol: as §5
# [16] = tested on: S. aureus; experiment: Starvation-induced tolerance assay, S. aureus; type: cell-based, Staphylococcus aureus
# Protocol: as §2, §3, §4
# [17] = tested on: S. aureus ATCC29213; experiment: Minimal inhibitory concentration, S. aureus; type: cell-based; settings: Staphylococcus aureus, 16 hours, Mueller Hinton Broth
# Excerpt: as §1
smiles,measurement,setting,value
Clc1ccc(COC(Cn2ccnc2)c2ccc(Cl)cc2Cl)cc1 (stereo not drawn) [econazole],effect on the tolerant sub-population,[1],eradicate the tolerant sub-population
same,MIC,[2],> 160 µM
same,time to eradication of the entire tolerant population,[3]; econazole 40 μM + ampicillin 10×MIC,24 h
same,effect of co-administration with ampicillin,"[3]; econazole + ampicillin, E. coli",pronounced bactericidal synergistic effect
same,treatment time at which all tolerant cells were killed,[3]; econazole + ciprofloxacin (1 μg/ml),24 h
same,size of bacterial population that survived,"[3]; econazole + ciprofloxacin (1 μg/ml), 4 hrs",about 200 CFU/mL
same,treatment time at which all tolerant cells were killed,[3]; econazole + gentamicin (20 μg/ml),24 h
same,size of bacterial population that survived,"[3]; econazole + gentamicin (20 μg/ml), 4 hrs",about 200 CFU/mL
same,size of the population that survived,"[3]; econazole alone, 4 hrs",about 1.7×10^5 CFU/mL
same,population size,"[3]; econazole alone, 24 hrs",~1×10^4 CFU/mL
same,protection of the test animals compared with ceftazidime alone,"[4]; ceftazidime + econazole (20 mg/kg each), inoculation of 7.6×10^5 CFU",slightly more effective
same,rate of eradication of PY1 tolerant cells in surviving mice,"[4]; ceftazidime + econazole, 7.6×10^5 CFU, after 72 h, P<0.0001",significantly higher
same,survival rate,"[4]; econazole 20 mg/kg + ceftazidime 20 mg/Kg, 1.5×10^6 CFU",80%
same,effect of co-administration with ampicillin,[5]; econazole + ampicillin,pronounced bactericidal synergistic effect
same,time to eradication of the tolerant sub-population,[5]; econazole + ampicillin,≤ 96 h
same,killing of tolerant cells,"[5]; econazole alone, 40 μM",slight killing effect
same,effect on PMF (DiSC3(5) fluorescence),[6],caused dissipation of PMF
same,effect of co-administration with ampicillin,[7]; econazole + ampicillin,pronounced bactericidal synergistic effect
same,time to eradication of the entire tolerant sub-population,[7]; econazole + ampicillin,≤ 24 h
same,killing of tolerant cells,"[7]; econazole alone, 40 μM",slight killing effect
same,eradication of E. coli tolerant cells compared with ceftazidime (20 mg/Kg) alone,"[8]; econazole 20 mg/kg + ceftazidime 20 mg/Kg i.p. every 12 hrs for 72 hrs, P=0.031",significantly more
same,eradication of E. coli tolerant cells compared with ceftazidime (20 mg/Kg) alone,"[8]; econazole alone 20 mg/kg i.p. every 12 hrs for 72 hrs, P=0.026",significantly more
same,effect of co-administration with ampicillin,[9]; econazole + ampicillin,pronounced bactericidal synergistic effect
same,time to eradication of the tolerant sub-population,[9]; econazole + ampicillin,≤ 96 h
same,size of the tolerant population,"[9]; econazole + ceftazidime (100 μg/ml), within 96 hrs (FIG. 16F)",~500 CFU/mL
same,killing of tolerant cells,"[9]; econazole alone, 40 μM",slight killing effect
same,effect of co-administration with colistin,[10],bactericidal synergistic effect
same,effect of co-administration with ampicillin,[11]; econazole + ampicillin,pronounced bactericidal synergistic effect
same,time to eradication of the entire tolerant sub-population,[11]; econazole + ampicillin,≤ 24 h
same,killing of tolerant cells,"[11]; econazole alone, 40 μM",slight killing effect
same,toxicity or safety in human,[12],proven safe
same,cell morphology under SEM,[13]; econazole 40 μM + ampicillin 100 μg/ml,cell membrane structure was severely damaged
same,cell morphology under SEM,[13]; econazole 40 μM alone,"rough cell surface, as well as leakage of intracellular material"
same,membrane damage or morphological changes,"[13]; econazole, exponentially growing cells (data not shown)",not found to cause any detectable membrane damage or morphological changes
same,effect on PMF (DiSC3(5) fluorescence),[14],caused dissipation of PMF
same,effect on PMF (DiSC3(5) fluorescence),[15],caused dissipation of PMF
same,effect of co-administration with ampicillin,[16]; econazole + ampicillin,pronounced bactericidal synergistic effect
same,time to eradication of tolerant cells,"[16]; econazole alone, 40 μM",≤ 96 h
same,MIC,[17],40 µM
